Format in all cases: functional, cell-based
One experiment has as its system MCF7. As to the kind of experiment: Growth inhibition of human MCF7 cells by MTT assay. For orientation: Tetrazolium assays rely on reduction of a dye to a coloured formazan, in cell work by metabolically active cells.
A further experiment concerns NCI-H460. Put plainly: Growth inhibition of human NCI-H460 cells by MTT assay.
For another experiment, the system named is SF-268. Put plainly: Growth inhibition of human SF268 cells by MTT assay.

The structures appear in SMILES notation. Bounds are passed on as bounds.

As usually defined, the IC50 is the concentration at which inhibition is half-maximal. A higher IC50 goes with a need for much substance. As to `O=P1(C(c2ccc(Cl)cc2)P2(=O)Oc3ccccc3CN2c2ccc(F)c(Cl)c2)Oc2ccccc2CN1c1ccc(F)c(Cl)c1` (stereo unspecified), the IC50 came out at 14.3 µM in the experiment on MCF7, 10.9 µM with NCI-H460 and 11.2 µM in the experiment with SF-268.

In the case of `C/C=C/C(P1(=O)Oc2ccccc2CN1c1ccc(F)c(Cl)c1)P1(=O)Oc2ccccc2CN1c1ccc(F)c(Cl)c1` (stereo unspecified), the values for the IC50 with MCF7, with NCI-H460 and in the experiment with SF-268 were 11.3 µM, 8.22 µM and 8.5 µM, respectively.

In the case of `O=P1(C(/C=C/c2ccccc2)P2(=O)Oc3ccccc3CN2c2ccc(F)c(Cl)c2)Oc2ccccc2CN1c1ccc(F)c(Cl)c1` (stereo unspecified), the IC50 is 13.1 µM with MCF7, 11.8 µM in the experiment on NCI-H460 and 11.6 µM in the experiment on SF-268.

For the molecule `Cc1ccc(C(P2(=O)OCC(C)(C)CO2)P2(=O)OCC(C)(C)CO2)cc1`, the IC50 in the experiment with MCF7, with NCI-H460 and in the experiment with SF-268 was more than 1000 µM throughout.

In the case of `Cc1ccc(C(P2(=O)Oc3ccccc3CN2c2ccc(F)c(Cl)c2)P2(=O)Oc3ccccc3CN2c2ccc(F)c(Cl)c2)cc1` (stereo unspecified), the IC50 with MCF7 turned out to be 12.7 µM; with NCI-H460, 9 µM; in the experiment with SF-268 it was 7.69 µM.

As to `O=P1(C(c2ccccc2)P2(=O)Oc3ccccc3CN2c2ccc(F)c(Cl)c2)Oc2ccccc2CN1c1ccc(F)c(Cl)c1` (stereo unspecified), the IC50 in the experiment on MCF7 is 4.05 µM; in the experiment on NCI-H460 it was 3.77 µM; in the experiment on SF-268, 2.8 µM.

On to `C/C=C/C(P1(=O)OCC(C)(C)CO1)P1(=O)OCC(C)(C)CO1`, for which the IC50 in the experiment on MCF7, with NCI-H460 and in the experiment with SF-268 was more than 1000 µM throughout.

On to `CC1(C)COP(=O)(C(c2ccccc2)P2(=O)OCC(C)(C)CO2)OC1`, for which the IC50 in the experiment on MCF7, in the experiment on NCI-H460 and in the experiment with SF-268 was more than 1000 µM throughout.

As for `CC1(C)COP(=O)(C(c2ccc(Cl)cc2)P2(=O)OCC(C)(C)CO2)OC1`, the IC50 with MCF7, with NCI-H460 and in the experiment with SF-268 was more than 1000 µM each time.

Regarding `CC1(C)COP(=O)(C(c2cccc([N+](=O)[O-])c2)P2(=O)OCC(C)(C)CO2)OC1`, the IC50 with MCF7, with NCI-H460 and with SF-268 was more than 1000 µM each time.

For `CCN(CC)c1ccc(C(P2(=O)OCC(C)(C)CO2)P2(=O)OCC(C)(C)CO2)cc1`, the IC50 in the experiment with MCF7, in the experiment with NCI-H460 and with SF-268 was more than 1000 µM each time.

As to `CC1(C)COP(=O)(C(c2ccncc2)P2(=O)OCC(C)(C)CO2)OC1`, the IC50 in the experiment with MCF7, in the experiment on NCI-H460 and with SF-268 was more than 1000 µM throughout.

As to `NP(=O)(O)C(c1ccc(Cl)cc1)P(N)(=O)O` (stereo unspecified), the IC50 in the experiment with MCF7 is 71.3 µM; with NCI-H460 it was 75.2 µM; in the experiment on SF-268, 90.4 µM.

As for `CCN(CC)c1ccc(C(P2(=O)Oc3ccccc3CN2c2ccc(F)c(Cl)c2)P2(=O)Oc3ccccc3CN2c2ccc(F)c(Cl)c2)cc1` (stereo unspecified), the IC50 worked out at 5.71 µM in the experiment with MCF7, 5.69 µM in the experiment with NCI-H460 and 3.85 µM with SF-268.

Take `O=[N+]([O-])c1cccc(C(P2(=O)Oc3ccccc3CN2c2ccc(F)c(Cl)c2)P2(=O)Oc3ccccc3CN2c2ccc(F)c(Cl)c2)c1` (stereo unspecified): the values for the IC50 in the experiment with MCF7, with NCI-H460 and in the experiment on SF-268 were 17.6 µM, 13 µM and 10.7 µM, respectively.

In the case of `O=P1(C(c2ccncc2)P2(=O)Oc3ccccc3CN2c2ccc(F)c(Cl)c2)Oc2ccccc2CN1c1ccc(F)c(Cl)c1` (stereo unspecified), the IC50 in the experiment with MCF7 was 11.5 µM; in the experiment with NCI-H460, 12.3 µM; with SF-268, 11.7 µM.

`CC1(C)COP(=O)(C(/C=C/c2ccccc2)P2(=O)OCC(C)(C)CO2)OC1`: the half-inhibitory concentration (IC50) with MCF7, in the experiment with NCI-H460 and with SF-268 was more than 1000 µM throughout.
